According to patent US20170008928A1, “NOVEL PEPTIDES AND PEPTIDE DERIVATIVES AND USES THEREOF” (Novo Nordisk A/S, priority 2015, published 2017):
Starred links: 1 amine or outer side, 2 acyl side, 3 side chain; linkers in the order of their positions; H or OH if unused. Non-standard residues stand in square brackets, D forms with d. Residues, ends and D or L forms follow the SMILES beside them. *: point of attachment. Phe(4-CH2SO3H) = N[C@@H](Cc1ccc(CS(=O)(=O)O)cc1)C(=O)O; sY = N[C@@H](Cc1ccc(OS(=O)(=O)O)cc1)C(=O)O; C18 diacid = O=C(O)CCCCCCCCCCCCCCCCC(=O)*; γGlu = O=C(O)[C@H](CCC(=O)[*:2])N[*:1]; βAsp = O=C(O)[C@H](CC(=O)[*:2])N[*:1]; NMeF = CN[C@@H](Cc1ccccc1)C(=O)O; dNMeD = CN[C@H](CC(=O)O)C(=O)O; Nle = CCCC[C@H](N)C(=O)O; AEEA = NCCOCCOCC(=O)O

Tests used:
[1] = target: T1, human cholecystokinin-1 receptor (CCK-1R) (Homo sapiens, UniProt P32238); experiment: In vitro potency on CCK-1R, whole cell functional assay (IP1 accumulation, IP-One HTRF); type: cell-based; conditions: for EC50: 1321-N1 cells stably expressing CCK-1R, IP1 accumulation, average of min. three replicates, read-out: EC50 (CCK-1R); for CCK-1R selectivity (EC50 (CCK-2R)/EC50 (CCK-1R)): ratio of functional EC50 values, >1 = preference for CCK-1R
T1 construct: host or cells: 1321-N1 cells
T1 sequence (P32238 1-428): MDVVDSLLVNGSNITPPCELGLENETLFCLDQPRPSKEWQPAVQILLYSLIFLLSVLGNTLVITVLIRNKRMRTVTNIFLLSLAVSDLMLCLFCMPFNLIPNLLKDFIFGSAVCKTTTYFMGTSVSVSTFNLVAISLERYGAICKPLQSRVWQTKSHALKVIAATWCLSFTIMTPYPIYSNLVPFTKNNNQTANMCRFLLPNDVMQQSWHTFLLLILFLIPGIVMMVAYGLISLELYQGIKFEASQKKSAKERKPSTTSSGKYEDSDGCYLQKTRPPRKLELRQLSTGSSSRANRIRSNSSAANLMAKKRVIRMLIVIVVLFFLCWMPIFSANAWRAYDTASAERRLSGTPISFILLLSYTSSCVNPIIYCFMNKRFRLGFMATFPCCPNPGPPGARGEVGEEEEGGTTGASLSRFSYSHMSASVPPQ

[2] = target: T1, human cholecystokinin-1 receptor (CCK-1R); experiment: In vitro receptor binding to CCK-1R, SPA displacement of [125I]-CCK-8s from plasma membranes; conditions: for CCK-1R binding selectivity (IC50 (CCK-2R)/IC50 (CCK-1R)): ratio of binding IC50 values, >1 = preference for CCK-1R; for IC50: displacement of [125I]-CCK-8s, plasma membranes of 1321-N1 cells expressing CCK-1R, read-out: IC50 (CCK-1R)
Experimental: The in vitro binding affinity is a measure of the strength of attraction between a receptor and its ligand.
Displacement of radio ligand was measured as reduction in light emission from SPA beads.
The cells used in these assays were 1321-N1 cells stably expressing the CCK-1R or the CCK-2R (Perkin Elmer product numbers ES-530-A and ES-531-A, respectively see www.perkinelmer.com/Catalog/Product/ID/ES-530-A or -ES-531-A, respectively).
The cells were cultured in an incubator (95% RH (relative humidity), 5% (of standard atmospheric pressure) CO2, 37° C.) in cell culture medium (DMEM (Lonza catalogue BE-12-604F/U1), with 10% (v/v) Foetal Calf Serum (FCS, Gibco catalogue 16140-071), 1% (w/w) Sodium pyruvate (Gibco catalogue 11360-039), 500 μg/ml Geneticin® (G418) (Gibco catalogue 10131-027), 25 μg/ml Zeocin™ (Invitrogen catalogue R250-05), 1% (w/w) Pen/Strep (Gibco catalogue 15140-122)).
Plasma membranes were prepared by Evotec AG Hamburg by use of the ParrBomb (#4635, Parr Instrument Company). Cells were lysed with a lysis buffer (50 mM Tris, 2.5 mM EDTA, pH7) with added protease inhibitors (Complete Proteaseinhibitors EDTA-free (#05056489001, Roche), 1 tablet per 50 mL lysis buffer). The membrane fraction was separated by centrifugation. First, the cell lysate was centrifuged at 1000×g for 10 minutes at 4° C. The pellet was discarded and the supernatant was then centrifuged at 100.000×g for 30 minutes at 4° C. The supernatant was discarded and the pellet was re-suspended in 1 ml/5×10^8 cells ice cold membrane buffer (50 mM Tris, 320 mM Sucrose and Complete Proteaseinhibitors EDTA-free (#05056489001, Roche); pH7.4) and homogenised with dounce homogeniser. The protein concentration was determined using the Pierce™ BCA Protein Assay Kit according to kit manual, and the membrane preparation was adjust to the desired protein concentration with membrane buffer and aliquoted into pre-cooled tubes, snap-frozen in liquid nitrogen, and stored at −80° C.
CCK receptor binding assays were performed in 96-well Optiplates (Cat #6005290, PerkinElmer, Waltham, Mass., USA) in a total volume of 200 μl per well. CCK derivatives in 80% DMSO stock solutions of 800 μM were serially diluted […] in assay buffer (50 mM Tris/HCl, 4.5 mM MgCl2, […], 0.02% Tween 20, 0.25% ovalbumin, 0.1% pluronic F-68, pH 7.4) to final assay concentrations ranging from 10^−5 M (ten μM) to 10^−12 M (one pM).
Fifty μl of reference or test compounds were added to the Optiplates (using technical duplicates, i.e. two wells of each sample, one data point being the average of two wells), followed by addition of 150 μl of the mixture of SPA bead, radio ligand, and plasma membrane. The plates were sealed and incubated in the dark at +22° C. for 2 hours on a IKA MTS plate shaker (IKA-Werke D-79219 Staufen) set at 300 rpm and thereafter centrifuged at 1500 rpm for 10 minutes in a Heraeus Multifuge 3s centrifuge. SPA bead light emission was measured in a TopCount NXT (PerkinElmer) for 2 min/well after a delay of 60 min.
As a measure of compound affinity, calculations were performed in order to determine the half maximal inhibitory concentration (the IC50 value).
The data from the TopCounter were given as counts per minute (CPM). The CPM was plotted as a function of the concentration of compound. Dose-response curves were obtained, and IC50 values were calculated, by a nonlinear three-parameter logistic equation (log(agonist) vs response) with hillslope=−1, and shared top and bottom using the software programme GraphPad Prism v 6.0 (Graph Pad software, La Jolla, Calif., USA). The highest dose tested was 10^−5 M (1×10^7 pM).
The preference of a specific compound for the CCK-1 receptor, or the CCK-1R selectivity, may be defined as IC50 (CCK-2R)/IC50 (CCK-1R).
A minimum of three biological replicates was measured for each test compound on separate assay plates.

[3] = target: T2, human cholecystokinin-2 receptor (CCK-2R) (Homo sapiens, UniProt P32239); experiment: In vitro receptor binding to CCK-2R, SPA displacement of [125I]-CCK-8s from plasma membranes; conditions: displacement of [125I]-CCK-8s, plasma membranes of 1321-N1 cells expressing CCK-2R; highest dose tested 1×10^7 pM; read-out: IC50 (CCK-2R)
T2 construct: host or cells: 1321-N1 cells (plasma membranes prepared by Evotec AG Hamburg)
T2 sequence (P32239 1-447): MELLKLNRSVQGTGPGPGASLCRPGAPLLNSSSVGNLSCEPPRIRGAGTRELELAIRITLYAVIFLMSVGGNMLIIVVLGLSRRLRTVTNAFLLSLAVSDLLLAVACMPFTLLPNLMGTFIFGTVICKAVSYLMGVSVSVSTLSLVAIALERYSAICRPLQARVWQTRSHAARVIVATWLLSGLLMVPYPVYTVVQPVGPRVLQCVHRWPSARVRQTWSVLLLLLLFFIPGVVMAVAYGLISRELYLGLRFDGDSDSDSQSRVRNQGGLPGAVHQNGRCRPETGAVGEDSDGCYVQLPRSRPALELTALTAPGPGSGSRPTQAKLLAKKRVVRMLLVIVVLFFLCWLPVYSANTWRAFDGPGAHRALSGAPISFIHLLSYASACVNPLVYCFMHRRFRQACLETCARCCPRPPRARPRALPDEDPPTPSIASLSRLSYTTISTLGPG

[4] = target: T2, human cholecystokinin-2 receptor (CCK-2R); experiment: In vitro potency on CCK-2R, whole cell functional assay (IP1 accumulation, IP-One HTRF); type: cell-based; conditions: 1321-N1 cells stably expressing CCK-2R; IP1 accumulation; highest dose tested 1×10^6 pM; read-out: EC50 (CCK-2R)

Compound	EC50 [1]	CCK-1R selectivity (EC50 (CCK-2R)/EC50 (CCK-1R)) [1]	CCK-1R binding selectivity (IC50 (CCK-2R)/IC50 (CCK-1R)) [2]	IC50 [3]	IC50 [2]	EC50 [4]
CCCC[C@H](NC(=O)[C@H](Cc1c[nH]c2ccccc12)NC(=O)CNC(=O)[C@H](CO)NC(=O)[C@H](Cc1ccc(OS(=O)(=O)O)cc1)NC(=O)[C@H](CC(=O)O)NC(=O)COCCOCCNC(=O)COCCOCCNC(=O)CC[C@H](NC(=O)CCCCCCCCCCCCCCCCC(=O)O)C(=O)O)C(=O)N(C)[C@H](CC(=O)O)C(=O)N(C)[C@@H](Cc1ccccc1)C(N)=O [Example 45, 2-[2-[2-[[2-[2-[2-[[(4S)-4-Carboxy-4-(17-carboxyheptadecanoylamino)butanoyl]amino]ethoxy]ethoxy]acetyl]amino]ethoxy]ethoxy]acetyl-Asp-sTyr-Ser-Gly-Trp-Nle-DMeAsp-MePhe-amide] ({C18 diacid-γGlu-AEEA-AEEA}-D[sY]SGW[Nle][dNMeD][NMeF]-NH2)	0.31 nM	3000	82000	–	–	–
CCCC[C@H](NC(=O)[C@H](Cc1c[nH]c2ccccc12)NC(=O)CNC(=O)[C@H](Cc1ccccc1)NC(=O)[C@H](Cc1ccc(OS(=O)(=O)O)cc1)NC(=O)[C@@H](N)CC(=O)O)C(=O)N(C)[C@H](CC(=O)O)C(=O)N(C)[C@@H](Cc1ccccc1)C(N)=O [Example 78, Asp-sTyr-Phe-Gly-Trp-Nle-DMeAsp-MePhe-amide] (H-D[sY]FGW[Nle][dNMeD][NMeF]-NH2)	0.22 nM	–	32000	920 nM	0.029 nM	> 1000 nM
CCCC[C@H](NC(=O)[C@H](Cc1c[nH]c2ccccc12)NC(=O)CNC(=O)[C@H](C)NC(=O)[C@H](Cc1ccc(OS(=O)(=O)O)cc1)NC(=O)[C@H](CC(=O)O)NC(=O)COCCOCCNC(=O)COCCOCCNC(=O)CC[C@H](NC(=O)CCCCCCCCCCCCCCCCC(=O)O)C(=O)O)C(=O)N(C)[C@H](CC(=O)O)C(=O)N(C)[C@@H](Cc1ccccc1)C(N)=O [Example 46, 2-[2-[2-[[2-[2-[2-[[(4S)-4-Carboxy-4-(17-carboxyheptadecanoylamino)butanoyl]amino]ethoxy]ethoxy]acetyl]amino]ethoxy]ethoxy]acetyl-Asp-sTyr-Ala-Gly-Trp-Nle-DMeAsp-MePhe-amide] ({C18 diacid-γGlu-AEEA-AEEA}-D[sY]AGW[Nle][dNMeD][NMeF]-NH2)	0.22 nM	440	4100	–	–	–
CCCC[C@H](NC(=O)[C@H](Cc1c[nH]c2ccccc12)NC(=O)CNC(=O)[C@H](CCCNC(=N)N)NC(=O)[C@H](Cc1ccc(OS(=O)(=O)O)cc1)NC(=O)[C@H](CC(=O)O)NC(=O)COCCOCCNC(=O)COCCOCCNC(=O)CC[C@H](NC(=O)CCCCCCCCCCCCCCCCC(=O)O)C(=O)O)C(=O)N(C)[C@H](CC(=O)O)C(=O)N(C)[C@@H](Cc1ccccc1)C(N)=O [Example 17, 2-[2-[2-[[2-[2-[2-[[(4S)-4-Carboxy-4-(17-carboxyheptadecanoylamino)butanoyl]amino]ethoxy]ethoxy]acetyl]amino]ethoxy]ethoxy]acetyl-Asp-sTyr-Arg-Gly-Trp-Nle-DMeAsp-MePhe-amide] ({C18 diacid-γGlu-AEEA-AEEA}-D[sY]RGW[Nle][dNMeD][NMeF]-NH2)	0.21 nM	–	–	880 nM	–	270 nM
CCCC[C@H](NC(=O)[C@H](Cc1c[nH]c2ccccc12)NC(=O)CNC(=O)[C@H](CC(C)C)NC(=O)[C@H](Cc1ccc(OS(=O)(=O)O)cc1)NC(=O)[C@@H](N)CCC(=O)O)C(=O)N(C)[C@H](CC(=O)O)C(=O)N(C)[C@@H](Cc1ccccc1)C(N)=O [Example 77, Glu-sTyr-Leu-Gly-Trp-Nle-DMeAsp-MePhe-amide] (H-E[sY]LGW[Nle][dNMeD][NMeF]-NH2)	0.21 nM	–	–	> 10000 nM	–	920 nM
CCCC[C@H](NC(=O)[C@H](Cc1c[nH]c2ccccc12)NC(=O)CNC(=O)[C@H](Cc1ccccc1)NC(=O)[C@H](Cc1ccc(OS(=O)(=O)O)cc1)NC(=O)[C@H](CC(=O)O)NC(=O)COCCOCCNC(=O)COCCOCCNC(=O)CC[C@H](NC(=O)CCCCCCCCCCCCCCCCC(=O)O)C(=O)O)C(=O)N(C)[C@H](CC(=O)O)C(=O)N(C)[C@@H](Cc1ccccc1)C(N)=O [Example 44, 2-[2-[2-[[2-[2-[2-[[(4S)-4-Carboxy-4-(17-carboxyheptadecanoylamino)butanoyl]amino]ethoxy]ethoxy]acetyl]amino]ethoxy]ethoxy]acetyl-Asp-sTyr-Phe-Gly-Trp-Nle-DMeAsp-MePhe-amide] ({C18 diacid-γGlu-AEEA-AEEA}-D[sY]FGW[Nle][dNMeD][NMeF]-NH2)	–	960	87000	–	–	–
CCCC[C@H](NC(=O)[C@H](Cc1ccc(CS(=O)(=O)O)cc1)NC(=O)C[C@H](N)C(=O)O)C(=O)NCC(=O)N[C@@H](Cc1c[nH]c2ccccc12)C(=O)N[C@@H](CCCC)C(=O)N(C)[C@H](CC(=O)O)C(=O)N(C)[C@@H](Cc1ccccc1)C(N)=O [Example 75, bAsp-Phe(4-sulfomethyl)-Nle-Gly-Trp-Nle-DMeAsp-MePhe-amide] (βAsp-[Phe(4-CH2SO3H)][Nle]GW[Nle][dNMeD][NMeF]-NH2)	0.19 nM	–	59000	–	0.049 nM	> 1000 nM
